Measurements from US10150969B2, “Methods and compositions to regulate plant transformation susceptibility” (priority 2010, dated 2018).

Key:
Arabidopsis roots = details: kinetin applied during infection; Agrobacterium tzs mutant; Hwang et al., 2010; cited from earlier work
MTF = details: Col-0 and Bl-1 root segments treated for two days with trans-zeatin
Method: Real-time RT-PCR was carried out using total RNA isolated in triplicate from roots of plants grown in liquid B5 medium. PCR was performed in triplicate on an ABI Prism 7500 Sequence Detection System (Applied Biosystems, Foster City, Calif.). Expression levels were calculated by the relative standard curve method (Applied Biosystems) for all transcripts except ORA59, where the comparative cycle threshold method (Applied Biosystems) was used, and normalized to Actin2 transcript levels.
(§1) Roots were infected with bacteria at 10^6 cfu/mL (Col-0) or 10^8 cfu/mL (Bl-1). Following infection, root segments were either transferred to MS basal medium containing 100 μg/mL Timentin and incubated for 4-5 weeks before recording the percentage of root segments developing tumors, or used for RNA isolation.

[1] = tested on: Arabidopsis root segments; details: Col-0 and Bl-1 root segments, 24 h, 1.4 μM trans-zeatin
Method: Root segments of Arabidopsis Bl-1 and MTF-RNAi lines were incubated with A. tumefaciens A208 containing pJZ383 (Ptac::GFP). Root segments were co-cultivated with 10^5 cfu/mL (ecotype Columbia) or 10^8 cfu/mL (ecotype Bl-1) for 24 h in B5 minimal medium. Root segments were rinsed and visualized by epifluorescence microscopy.
Agrobacterium attachment assays were conducted as described herein. Col-0 and Bl-1 root segments were co-cultivated with A281 at 10^6 or 10^8 cfu/mL, respectively, for 24 h in the presence or absence of 1.4 μM trans-zeatin.

[2] = tested on: Arabidopsis root segments; details: A. tumefaciens A348 or A281 (no TZS), 1.4 or 14 μM trans-zeatin
Method: Neither of these strains harbors TZS. Trans-zeatin concentrations representing the range secreted by nopaline-type A. tumefaciens strains were used.
A. tumefaciens was cultured in Yeast Extract-Peptone medium (Lichtenstein et al., 1986) containing the appropriate antibiotics. Root transformation assays were carried out as previously described by Nam et al. with minor modifications (Tenea et al., 2009). MS basal medium lacking phytohormones was used to select for tumors. GUS activity assays were carried out after infection of root segments with A. tumefaciens At849 (Narasimhulu et al., 1996) for 4-6 d, using X-gluc (Jefferson et al., 1987).
as §1

Structure (SMILES) | susceptibility of roots to transformation (Arabidopsis roots) | decrease of MTF transcript levels (MTF) | attachment of A. tumefaciens A281 [1] | increase in transformation efficiency ([2]; Col-0 roots, percentage of root segments developing tumors) | increase in susceptibility ([2]; ecotype Bl-1 roots)
c1coc(CNc2ncnc3[nH]cnc23)c1 [kinetin] | increased the susceptibility | – | – | – | –
C/C(=C\CNc1ncnc2nc[nH]c12)CO [trans-zeatin] | – | 30-60% | increased attachment | 4-8 fold | 2-3 fold
